Data set [1] concerns guinea pigs. In words: In vivo closed chest atrially paced guinea pig model: AERP, QTcB, heart rate. The procedure:
AP14145 was supplied by Acesion Pharma. […] For the Langendorff perfused heart experiments the compounds were dissolved in DMSO to make stock solutions and diluted to the final concentration in the Krebs-Henseleit buffer during the experiments. The final concentration of DMSO never exceeded 0.3% in the buffer. For the closed chest experiments, the compounds were first dissolved in PEG-400 and then diluted to a 50% saline and 50% PEG-400 solution. A total of 18 female guinea pigs (Dunkin Hartley HsdPoc : GH, Charles River) weighing 350-450 g were anesthetized with 5% isoflurane/oxygen in a sedation box. The guinea pigs were placed under artificial ventilation through a cannula placed in the trachea and anesthesia was reduced to 2.5% isoflurane/oxygen throughout the experiment. The temperature of the guinea pigs was monitored with a rectal thermometer and kept stable during the experiment using a heating lamp. Needle ECG electrodes were placed in each limb for ECG recordings (ADInstruments, UK). An electrophysiological catheter with eight electrodes (EPR-802) (Millar Inc., US) was placed in the right atrium via the right jugular vein. The two electrodes proximal to the tip of the catheter ([[…] et al., 2006]; [[…] et al., 2012]) were used to pace the atrium and six electrodes ([Waldo et al., 1996]; [[…] et al., 2003]; [Roukoz and […] et al., 2009]; [Grunnet et al., 2012]; [Zimetbaum, 2012]) were used to measure the electrical activity in the atrium. The AERP was measured as in the Langendorff experiments. Between the AERP recordings, the heart remained unpaced. An intravenous catheter (inside diameter 0.5, outside diameter 0.8 mm, Natsume Seisakusho, Japan) was placed in the right jugular vein alongside the electrophysiology catheter for drug infusion. […] First a period of 20 min baseline recording was conducted with AERP measurements every 5 min ( Figure 1 ). […] The AERP was measured every 5 min during baseline and every 2 min during and after infusion.

Data set [2] addresses T1, hKCa2.2 (Homo sapiens, UniProt Q9H2S1). Set-up: method as in Simó-Vicens et al., 2017a. Conditions: hKCa2.2, automated patch clamp; ref Simó-Vicens et al., 2017a; cited from earlier work. A general note: Patch clamp records ionic current or voltage across a cell membrane.
The test system of data set [3] is isolated guinea pig hearts. In words: Isolated Langendorff-perfused guinea pig hearts: AERP, QTcB, heart rate. The method, then: AP14145 was supplied by Acesion Pharma. Dofetilide was purchased at Sigma-Aldrich (St. Louis, USA) for the Langendorff and Hello Bio (Bristol, UK) for the closed chest in vivo experiments. Ondansetron was purchased at Sigma-Aldrich (St. Louis, USA). For the Langendorff perfused heart experiments the compounds were dissolved in DMSO to make stock solutions and diluted to the final concentration in the Krebs-Henseleit buffer during the experiments. The final concentration of DMSO never exceeded 0.3% in the buffer. For the closed chest experiments, the compounds were first dissolved in PEG-400 and then diluted to a 50% saline and 50% PEG-400 solution. The Langendorff perfused heart experiments were performed using a total of 24 female Dunkin Hartley guinea pigs (350–450 g, Charles River, Saint-Germain-Nuelle, France). Guinea pigs were anesthetized with an i.p. injection of pentobarbital 200 mg/ml, lidocaine hydrochloride 20 mg/ml, (Glostrup Apotek, Denmark), dose 0.150 ml/100 g body weight. A tracheotomy was performed and the guinea pigs were ventilated with 60 strokes*5 ml/min using a rodent ventilator (7025 Rodent ventilator, Ugo Basile, Italy). The hearts were excised and cannulated in situ through a small puncture of the aorta and connected to the Langendorff retrograde perfusion setup (Hugo Sachs Elektronik, Harvard Apparatus GmbH, March, Germany). The hearts were retrogradely perfused at a constant perfusion pressure of 60 mmHg at 37°C, pH 7.4, Krebs-Henseleit buffer (in mM: […] The aortic perfusion pressure was determined with an ISOTEC transducer (Hugo Sachs Elektronik) and the coronary flow was measured with an ultrasonic flow meter (Transonic Systems Inc., USA). Both were connected to an amplifier (Hugo Sachs Elektronik). The electrical activity was measured using volume conducted ECGs and by placing epicardial monophasic action potential electrodes (MAPs) on the atria and ventricles. The hearts were immersed into a temperature-controlled bath containing pH 7.4 Krebs-Henseleit buffer. Perfusion pressure, coronary flow, ECG, and MAP analogue signals sampled at a frequency of 2k/s and converted by a 16/30 data acquisition system from PowerLab systems (ADInstruments, Oxford, UK) and monitored using LabChart 7 software (ADInstruments). A bipolar pacing electrode was placed on the right atrial appendage for epicardial pacing stimulation using square pulses of 2 ms durations at three times diastolic threshold at 300 beats per minute. During the entire experiment, the ECG was monitored and monophasic action potential electrodes were placed on each chamber of the heart. The hearts were then left to stabilize for 20 min at intrinsic heart rhythm. The right AERP was measured by 10 regular stimuli (S1) followed by a premature extra stimulus (S2) applied with 1-ms increments. The AERP was defined as the longest S1–S2 interval failing to elicit an action potential. […] After a period of stabilization, every Langendorff experiment consisted of four 20-min episodes ( Figure 1 ). […] During the entire experiment, the AERP was measured every 5 min and the ECG was continuously monitored.

Data set [4] addresses T2, hKCa2.3 (Homo sapiens, UniProt Q9UGI6). To be noted: hKCa2.3, automated patch clamp, cited from earlier work.
Data set [5] deals with T1, hKCa2.2. In words: Automated patch clamp (QPatch), IKCa in HEK293 cells stably expressing hKCa2.2. In kind it is cell-based. To be noted: hKCa2.2, automated patch clamp, present study, n = 8. The method, then:
(§1) The KCa2.2 manual patch-clamp experiments and KCa2.2/KCa2.3 QPatch experiments were conducted using symmetrical K^+ solutions. The extracellular solution contained (in mM) 0.1 CaCl2, 3 MgCl2, 154 KCl, 10 HEPES, and 10 glucose (pH = 7.4 and 285–295 mOsm). The intracellular solution contained (in mM) 8.106 CaCl2 (final free Ca^2+ concentration of 400 nM), 1.167 MgCl2, 10 EGTA, 108 KCl, 10 HEPES, 31.25/10 KOH/EGTA, and 15 KOH (pH = 7.2).
(§2) Bicuculline methiodide was used as a positive control for KCa2 specific current at the beginning and the end of the experiment.
(§3) The cells were cultured in Dulbecco’s modified Eagle’s medium (DMEM1965, Thermo Fisher, USA) supplemented with 26.2 mM NaHCO3, 25 mM HEPES, 10 ml L^-1 Glutamax (Gibco, USA), 10% fetal bovine serum (Biowest, France), 100 U ml^-1 of penicillin/streptomycin (Sigma, Germany), and 100 µg/ml Geneticin (Gibco, UK) […]
(§4) For IKCa and IKr, the mean of the last three data points was used for further analysis. […] Individual IC50 values were calculated for each experiment and then used to obtain the final mean ± S.E.M.

Data set [6] has as its target T1, hKCa2.2. The experiment in a line: Manual whole-cell patch clamp, IKCa in HEK293 cells transiently transfected with hKCa2.2. In kind it is cell-based. The method, then: These stock solutions were stored at −20°C and aliquots were solubilized at the desired concentration on the day of the experiment.
as §1
The cells were cultured in Dulbecco’s modified Eagle’s medium (DMEM1965, Thermo Fisher, USA) supplemented with 26.2 mM NaHCO3, 25 mM HEPES, 10 ml L^-1 Glutamax (Gibco, USA), 10% fetal bovine serum (Biowest, France), and 100 U ml^-1 of penicillin/streptomycin (Sigma, Germany); 1 to 2 days after the transfection, patch clamp experiments were conducted. […]
Manual patch clamp recordings were made using a HEKA EPC9 amplifier and the PatchMaster software (HEKA Elektronik, Germany) at room temperature using the whole cell configuration. Fluorescence was used to detect successfully transfected cells. […]
as §4

The target in data set [7] is T2, hKCa2.3. In words: Automated patch clamp (QPatch), IKCa in HEK293 cells stably expressing hKCa2.3. Format: cell-based. The method, then:
as §1, §2, §3, §4

Data set [8] has as its target T3, hKv11.1 (Homo sapiens, UniProt Q12809).
T3 construct: expressed in transfected cells
In words: Automated patch clamp (QPatch), IKr in CHO-K1 cells stably expressing Kv11.1. Conditions: Kv11.1 current. In kind it is cell-based.
Procedure: For the Kv11.1 experiments conducted on the automated QPatch machine, the extracellular solution contained (in mM) 145 NaCl, 4 KCl, 2 CaCl2, 1 MgCl2, 10 HEPES, and 10 glucose (pH = 7.4 and 305 mOsm adjusted with sucrose). The intracellular solution contained (in mM) 120 KCl, 31.25/10 KOH/EGTA, 5.4 CaCl2, 1.75 MgCl2, 4 mM Na2ATP, and 10 HEPES (pH = 7.2 and 285–296 mOsm adjusted with sucrose). Recordings were made before and after application of drug.
The cells were cultured in DMEM F12 (Sigma, Germany), 10% fetal bovine serum (Biowest, France) and 100 U ml^-1 of penicillin/streptomycin (Sigma, Germany), 100 µg/ml Geneticin (Gibco, UK), 100 µg/ml hygromycin (Sigma-Aldrich), and 2 mM glutamine (Gibco, UK).
On the day of experiment, when cells reached about 70–90% confluency, they were detached with Detachin (Genlantis, USA) and resuspended in serum free medium (C5467 SAFC, Switzerland) containing 25 mM HEPES, 0.04 mg/ml soy bean trypsin inhibitor (T6522 Sigma-Aldrich), and 100 U/ml penicillin/streptomycin and were kept in suspension for QPatch experiments.
Automated patch-clamp whole-cell recordings were performed using a QPatch 16 HT system and disposable single-hole QPlates (Sophion, Denmark). […]

Data set [9] has as its target T3, hKv11.1. Set-up: method as in Diness et al., 2017. Conditions: hKv11.1, automated patch clamp; ref Diness et al., 2017; cited from earlier work.
Data set [10] deals with T2, hKCa2.3. Set-up: method as in Simó-Vicens et al., 2017b. To be noted: hKCa2.3, manual patch clamp; ref Simó-Vicens et al., 2017b; cited from earlier work.
Data set [11] has as its target T1, hKCa2.2. Set-up: method as in Simó-Vicens et al., 2017b. Conditions: hKCa2.2, manual patch clamp; ref Simó-Vicens et al., 2017b; cited from earlier work.

Entries after “also recorded” stand apart in the source; their conditions may differ. Like-named read-outs stand apart in the source and are kept apart here.

Broadly, the IC50 is the concentration needed to halve the response being measured.

T3 sequence (Q12809 whole entry): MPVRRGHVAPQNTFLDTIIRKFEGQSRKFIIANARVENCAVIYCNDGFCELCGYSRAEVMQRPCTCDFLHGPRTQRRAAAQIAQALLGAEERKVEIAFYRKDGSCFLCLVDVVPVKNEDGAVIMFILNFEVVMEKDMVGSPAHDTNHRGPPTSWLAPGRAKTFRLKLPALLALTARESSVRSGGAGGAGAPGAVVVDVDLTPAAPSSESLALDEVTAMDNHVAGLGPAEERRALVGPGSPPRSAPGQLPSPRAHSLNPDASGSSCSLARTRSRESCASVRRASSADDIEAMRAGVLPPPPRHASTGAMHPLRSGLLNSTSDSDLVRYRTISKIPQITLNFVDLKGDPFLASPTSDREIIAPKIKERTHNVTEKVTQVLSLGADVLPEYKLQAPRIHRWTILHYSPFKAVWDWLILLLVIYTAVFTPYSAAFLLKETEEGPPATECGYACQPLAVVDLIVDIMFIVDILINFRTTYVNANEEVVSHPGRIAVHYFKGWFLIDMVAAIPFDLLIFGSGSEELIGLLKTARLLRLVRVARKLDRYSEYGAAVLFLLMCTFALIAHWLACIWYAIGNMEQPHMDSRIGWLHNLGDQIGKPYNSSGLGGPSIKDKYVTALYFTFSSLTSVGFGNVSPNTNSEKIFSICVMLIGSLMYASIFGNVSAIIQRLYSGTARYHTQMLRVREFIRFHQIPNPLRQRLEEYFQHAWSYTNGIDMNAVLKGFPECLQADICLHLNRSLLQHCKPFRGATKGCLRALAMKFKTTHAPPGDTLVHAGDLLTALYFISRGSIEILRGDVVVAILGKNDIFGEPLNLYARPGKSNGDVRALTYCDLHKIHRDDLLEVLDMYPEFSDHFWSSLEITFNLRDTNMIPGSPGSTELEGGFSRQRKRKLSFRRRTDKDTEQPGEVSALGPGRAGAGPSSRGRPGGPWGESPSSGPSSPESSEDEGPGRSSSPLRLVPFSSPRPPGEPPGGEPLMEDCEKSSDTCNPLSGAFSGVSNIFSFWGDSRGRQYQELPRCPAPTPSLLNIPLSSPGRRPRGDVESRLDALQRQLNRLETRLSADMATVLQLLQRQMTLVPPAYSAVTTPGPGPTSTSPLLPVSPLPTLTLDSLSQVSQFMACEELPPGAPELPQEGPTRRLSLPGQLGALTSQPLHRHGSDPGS

In the case of `CN(CCOc1ccc(NS(C)(=O)=O)cc1)CCc1ccc(NS(C)(=O)=O)cc1` [Dofetilide], the “Effect on AERP” value in data set [1] (0.01 mg/kg infused over 20 min) is “No effect on AERP”. The “HR, % of the baseline average” value in data set [1] (0.01 mg/kg, minimum, 5 min after end of infusion, TMC 93 ± 2%) is 82 ± 3%. Moreover, the QTcB in data set [1] (after 5 min of infusion, 0.01 mg/kg over 20 min, TMC 280 ± 9 ms) was found to be 319 ± 11 ms; in [3] (10 nM, TMC 271 ± 5 ms) it was 306 ± 9 ms; in data set [3] (30 nM, TMC 269 ± 6 ms), 313 ± 9 ms. For the same compound, the IC50 in data set [2] is 60 µM; in data set [4] (ref Simó-Vicens et al., 2017a), 90 µM. Besides, the “HR, % of baseline values” in data set [3] (10 nM, TMC 94 ± 4%) worked out at 83 ± 3%; in data set [3] (30 nM, TMC 91 ± 4%) it was 80 ± 3%. In data set [3] (30 nM, TMC 64 ± 6 ms), this compound registered an AERP of 80 ± 4 ms.
As to `Cc1nccn1CC1CCc2c(c3ccccc3n2C)C1=O` (stereo not drawn) [Ondansetron], the IC50 is greater than 30 µM in data set [5]; greater than 1 µM in data set [6] (hKCa2.2, manual patch clamp, present study); greater than 30 µM in data set [7] (hKCa2.3, automated patch clamp, present study, n = 8). Further, the “Effect on IKCa” value in data set [6] (1 µM, hKCa2.2-expressing HEK cells, 400 nM intracellular calcium, n = 5) is on record as “failed to inhibit IKCa; also recorded: did not inhibit IKCa”; in data set [7] (up to 30 µM, hKCa2.3 current) it was “did not inhibit IKCa”. Moreover, the “Concentration from which IKr is blocked” value in data set [8] is no less than 3000 nM. In data set [3] (3 µM, TMC 269 ± 6 ms), this compound had a QTcB of 294 ± 5 ms. In addition, the “Effect on AERP compared to TMC” value in data set [3] (concentrations up to 3µM) was “did not affect AERP significantly”. The “Effect on HR compared to TMC” value in data set [3] (concentrations up to 3µM) is “did not significantly affect HR”.
Regarding `CC(=O)Nc1cccc2[nH]c(N[C@H](C)c3cccc(C(F)(F)F)c3)nc12` [AP14145], in [1] (13.3 mg/kg infused over 20 min, TMC 75 ± 3 ms), the “AERP (maximum during infusion)” value was 113 ± 6 ms. In addition, the AERP in data set [1] (after 6 min of i.v. infusion (4 mg/kg given), TMC 72 ± 2 ms) worked out at 97 ± 6 ms; in data set [3] (10 µM, end of wash-in, TMC 61 ± 5 ms), 77 ± 2 ms. The IC50 in [9] is 71.8 µM; in data set [10], 1.1 µM; in [11], 1.1 µM; in [4] (ref Diness et al., 2017), 1.3 µM. The “AERP (maximum)” value in data set [3] (30 µM, TMC 64 ± 6 ms) is given as 93 ± 2 ms.

Values taken from article PMC6593233 (Frontiers in Pharmacology, 2019).
